Measured values: article PMC9822051, “A Study on the Chemistry and Biological Activity of 26-Sulfur Analogs of Diosgenin: Synthesis of 26-Thiodiosgenin S-Mono- and Dioxides, and Their Alkyl Derivatives” (Molecules, 2022)
Values after ≈ are worked out from the molar mass of the structure shown. Values joined by “and” are separate entries in the source; they are usually repeats but may differ in a detail not shown here. Equal entries are not always repeated. Where two headings read alike, the source gives them in different places.

Assays:
[1] = system: S. aureus 8325-4 membrane proteins (Trp^214 residues); experiment: Trp fluorescence quenching of bacterial membrane proteins (Stern-Volmer); assay type: binding, Staphylococcus aureus; details: for Stern-Volmer constant KSV: compound 0.5–2.0 µM, PBS pH 7.4, λexc 295 nm, λem 350 nm; for quenching constant kq: kq = KSV/τ0
Source text: (§1) Based on fluorescence analysis, the Stern-Volmer plots were drawn (Figure 5) using equation given below (Equation (1)). (1) F0/F=1+KSV[Q] where: F0 and F are the Trp fluorescence without and in the presence of quencher (studied compounds), KSV—Stern-Volmer constant, [Q]—concentration of the quencher.
(§2) In order to check whether studied compounds form complexes with bacterial cells proteins, the quenching constants (kq) have been calculated using equation below (Equation (2)) and are presented in Table 3. (2) kq=KSV/τ0 where: kq—quenching constant, KSV—Stern-Volmer constant, τ0—fluorescence lifetime of fluorophore molecules.
(§3) Bacteria strains: S. aureus and E. coli grown overnight at 37 °C in Mueller Hinton (MH) broth with shaking at 200 rpm. Next, bacteria suspensions were centrifuged (2300× g, 15 min) and resuspended in PBS after removing the supernatant. For experiments, bacteria suspensions (OD600 = 0.1 in C = 10 mM PBS buffer, pH = 7.4) have been used in the presence (concentration range 0.5–2.0 µM) and without the studied compounds. The measurements were performed in quartz cuvette (1 cm × 1 cm). Fluorescence was monitored at the λexc. = 295 nm and λem. = 350 nm from tryptophan (Trp^214) residues in bacterial membrane proteins. The studies were carried out using Perkin-Elmer LS-55B (Perkin-Elmer, Pontyclun, UK) spectrofluorometer.

[2] = Cytotoxicity, resazurin, 72 h; assay type: cell-based, human; details: human
Procedure: (§4) The studied compounds were evaluated for cytotoxicity in human cancer cell lines (cervical carcinoma HeLa, chronic myelogenous leukemia K562 and breast adenocarcinoma MCF7) and normal human retina cells RPE-1 (ca. 5.0 × 10^4 cells·mL^−1) after 72 h of treatment using resazurin (Merck/MilliporeSigma, St. Louis, MO, USA) as described earlier for Calcein AM dye.

[3] = system: E. coli ATCC 35218 membrane proteins (Trp^214 residues); experiment: Trp fluorescence quenching of bacterial membrane proteins (Stern-Volmer); assay type: binding, Escherichia coli; details: for Stern-Volmer constant KSV: compound 0.5–2.0 µM, PBS pH 7.4, λexc 295 nm, λem 350 nm; for quenching constant kq: kq = KSV/τ0
Source text: as §1, §2, §3

[4] = system: Staphylococcus aureus 8325-4; experiment: Antibacterial activity, broth microdilution (MIC/MBC); assay type: cell-based; details: S. aureus 8325-4; for MIC: 37 °C, 24 h
Procedure: (§5) The antibacterial activity of tested compounds was assessed by monitoring the cell growth of Staphylococcus aureus 8325-4 and Escherichia coli ATCC 35218 using the broth microdilution method, conducted according to the National Committee for Clinical Laboratory Standards. First, compounds were dissolved in methanol and the solution was added to Mueller Hinton broth (MHB) for bacteria to give a final concentration of 2000 µg/mL. The samples were then serially two-fold diluted in bullion to obtain concentration ranging from 1000 to 0.12 μg/mL in 96-well microtiter plate with the final volumes of 100 μL. Next, 100 μL of bacteria suspension was injected into each well. The final bacteria cell concentration was 1 × 10^6 colony-forming units per ml (CFU/mL). The plates were incubated at 37 °C for 24 h. The MIC value was determined as the lowest concentration of an antibacterial agent that inhibited bacterial growth, as indicated by the absence of turbidity. The MBC value was determined as the lowest concentration of antibacterial agents for which no bacterial growth on the plates was observed.

[5] = system: Escherichia coli ATCC 35218; experiment: as above; assay type: cell-based; details: E. coli ATCC 35218; for MIC: 37 °C, 24 h
Procedure: as §5

[6] = system: breast adenocarcinoma MCF7; experiment: Cytotoxicity, resazurin, 72 h; assay type: cell-based, human; details: MCF7, 72 h
Procedure: as §4

[7] = system: chronic myelogenous leukemia K562; experiment: Cytotoxicity, resazurin, 72 h; assay type: cell-based, human; details: K562, 72 h
Procedure: as §4

[8] = system: normal human retina cells RPE-1; experiment: Cytotoxicity, resazurin, 72 h; assay type: cell-based; details: RPE-1 normal cells
Procedure: as §4

cervical carcinoma HeLa = experiment: Cytotoxicity, resazurin, 72 h; assay type: cell-based, human
Procedure: as §4

[9] = system: lung cancer cell line A549; design: method as in PMID 33402081, PMID 23751199; details: cited from earlier work
[10] = K562 chronic myelogenous leukemia cells, K562, 72 h
[11] = MCF7 breast adenocarcinoma cells, MCF7, 72 h
[12] = RPE-1 normal retina cells, RPE-1 normal cells
[13] = Staphylococcus aureus, 83254, read-out: MIC
[14] = Staphylococcus aureus, 83254, read-out: MBC
[15] = Escherichia coli, ATCC35218, read-out: MIC
[16] = Escherichia coli, ATCC35218, read-out: MBC

Compound	Stern-Volmer constant KSV [1]	quenching constant kq [1]	IC50 at 72 h ([2]; HeLa cervical carcinoma cells)	IC50 at 72 h [2, 10]	IC50 at 72 h [2, 11]	IC50 at 72 h [2, 12]	Stern-Volmer constant KSV [3]	quenching constant kq [3]	MIC [4, 13]	MBC [4, 14]	MIC [5, 15]	MBC [5, 16]	melting point	also measured
CC1CCC2(OC3CC4C5CC=C6CC(O)CCC6(C)C5CCC4(C)C3C2C)SC1 (stereo not drawn) [26-Thiodiosgenin (3), 26-thiodiosgenin]	8.322 ± 0.142 10^4 M^−1	16.62 ± 0.23 10^12 M^−1s^−1	> 50 µM	> 50 µM	> 50 µM	> 50 µM	5.091 ± 0.152 10^4 M^−1	10.02 ± 0.28 10^12 M^−1s^−1	1.95 µg/mL and 4.5 µM	3.9 µg/mL (≈ 9.06 µM)	62.5 µg/mL and 145 µM	125 µg/mL (≈ 290 µM)		MBC [4]: 3.9 µg/mL (≈ 9.06 µM); MIC [4]: 1.95 µg/mL (≈ 4.53 µM); MBC [5]: 125 µg/mL (≈ 290 µM); MIC [5]: 62.5 µg/mL (≈ 145 µM)
CC1CCC2(OC3CC4C5CC=C6CC(O)CCC6(C)C5CCC4(C)C3C2C)[S+]([O-])C1 (stereo not drawn) [Sulfoxide 7]													165 to 166 °C	IC50 [6]: > 50 µM; IC50 [7]: > 50 µM; IC50 [8]: > 50 µM; IC50 (cervical carcinoma HeLa): 34.3 ± 3 µM
CC1CCC2(OC3CC4C5CC=C6CC(O)CCC6(C)C5CCC4(C)C3C2C)[S+]([O-])C1(C)C (stereo not drawn) [Dimethylsulfoxide 10]			32.2 ± 1.7 µM	> 50 µM	> 50 µM	> 50 µM								
CC1CCC2(OC3CC4C5CC6OC67CC(O)CCC7(C)C5CCC4(C)C3C2C)S(=O)(=O)C1 (stereo not drawn) [Epoxysulfone 9]			> 50 µM	> 50 µM	> 50 µM	> 50 µM								
C[C@@H]1CC[C@@]2(OC1)O[C@H]1C[C@H]3[C@@H]4CC=C5C[C@@H](O[C@@H]6O[C@H](CO)[C@@H](O[C@@H]7O[C@@H](C)[C@H](O)[C@@H](O)[C@H]7O)[C@H](O)[C@H]6O[C@@H]6O[C@@H](C)[C@H](O)[C@@H](O)[C@H]6O)CC[C@]5(C)[C@H]4CC[C@]3(C)[C@H]1[C@@H]2C [dioscine]														IC50 [9]: 4.02 µM
CC1CCC2(CC1)O[C@H]1C[C@H]3[C@@H]4CC[C@H]5C[C@@H](O)CC[C@]5(C)[C@H]4CC[C@]3(C)[C@H]1[C@@H]2C (stereo partly drawn) [Carbaanalog 5]	1.258 ± 0.189 10^4 M^−1	2.52 ± 0.32 10^12 M^−1s^−1	38.2 ± 0.8 µM	> 50 µM	> 50 µM	> 50 µM	2.021 ± 0.198 10^4 M^−1	4.04 ± 0.45 10^12 M^−1s^−1	7.8 µg/mL and 18.9 µM	31.2 µg/mL (≈ 75.4 µM)	500 µg/mL and 1210 µM	1000 µg/mL (≈ 2410 µM)		MIC [4]: 7.8 µg/mL (≈ 18.8 µM); MIC [5]: 500 µg/mL (≈ 1210 µM)
CC1CCC2(OC3CC4C5CC=C6CC(O)CCC6(C)C5CCC4(C)C3C2C)[S+]([O-])C1 (stereo not drawn) [Sulfoxide 6]	4.051 ± 0.170 10^4 M^−1	8.14 ± 0.35 10^12 M^−1s^−1	> 50 µM	> 50 µM	> 50 µM	> 50 µM	1.456 ± 0.201 10^4 M^−1	2.92 ± 0.36 10^12 M^−1s^−1	3.9 µg/mL and 8.7 µM	7.8 µg/mL (≈ 17.5 µM)	125 µg/mL and 280 µM	250 µg/mL (≈ 560 µM)	143 to 146 °C	
CCC1C(C)CCC2(OC3CC4C5CC=C6CC(O)CCC6(C)C5CCC4(C)C3C2C)S1(=O)=O (stereo not drawn) [26-Ethylsulfone 12]			44.1 ± 0.1 µM	> 50 µM	> 50 µM	> 50 µM							210 to 212 °C	
C[C@@H]1CC[C@@]2(OC1)O[C@H]1C[C@H]3[C@@H]4CC=C5C[C@@H](O)CC[C@]5(C)[C@H]4CC[C@]3(C)[C@H]1[C@@H]2C [Diosgenin (1), diosgenin]	5.441 ± 0.131 10^4 M^−1	10.93 ± 0.27 10^12 M^−1s^−1					3.384 ± 0.165 10^4 M^−1	6.76 ± 0.35 10^12 M^−1s^−1	3.9 µg/mL and 9.4 µM	15.6 µg/mL (≈ 37.7 µM)	250 µg/mL and 603 µM	500 µg/mL (≈ 1210 µM)		IC50 at 72 h ([2]; HeLa): > 50 µM; IC50 at 72 h ([2]; RPE-1 normal cells): > 50 µM; IC50 at 72 h ([2]; K562, 72 h): > 50 µM; IC50 at 72 h ([2]; MCF7, 72 h): > 50 µM; MBC [4]: 15.615 µg/mL (≈ 37.7 µM); MIC [4]: 3.9 µg/mL (≈ 9.41 µM); MBC [5]: 500 µg/mL (≈ 1210 µM); MIC [5]: 250 µg/mL (≈ 603 µM)
CC1CCC2(OC3CC4C5CC=C6CC(O)CCC6(C)C5CCC4(C)C3C2C)S(=O)(=O)C1 (stereo not drawn) [Sulfone 8]	2.915 ± 0.175 10^4 M^−1	5.82 ± 0.31 10^12 M^−1s^−1	> 50 µM	> 50 µM	> 50 µM	> 50 µM	2.962 ± 0.105 10^4 M^−1	5.92 ± 0.16 10^12 M^−1s^−1	3.9 µg/mL and 8.4 µM	7.8 µg/mL (≈ 16.9 µM)	125 µg/mL and 270 µM	250 µg/mL (≈ 540 µM)	205 to 207 °C	
C[C@@H]1CC[C@]2(O[C@H]3C[C@H]4[C@@H]5CC=C6C[C@@H](O[C@@H]7O[C@H](CO)[C@@H](O[C@@H]8O[C@@H](C)[C@H](O)[C@@H](O)[C@H]8O)[C@H](O)[C@H]7O[C@@H]7O[C@@H](C)[C@H](O)[C@@H](O)[C@H]7O)CC[C@]6(C)[C@H]5CC[C@]4(C)[C@H]3[C@@H]2C)SC1 [26-thiodioscine]														IC50 [9]: 3.72 µM
CC1CCC2(OC3CC4C5CC=C6CC(O)CCC6(C)C5CCC4(C)C3C2C)S(=O)(=O)C1C (stereo not drawn) [α-Methylsulfone 11]	3.442 ± 0.168 10^4 M^−1	6.84 ± 0.34 10^12 M^−1s^−1	92.3 µM	> 50 µM	> 50 µM	> 50 µM	2.470 ± 0.101 10^4 M^−1	4.94 ± 0.17 10^12 M^−1s^−1	3.9 µg/mL and 8.2 µM	7.8 µg/mL (≈ 16.4 µM)	125 µg/mL and 262 µM	250 µg/mL (≈ 524 µM)	225 to 227 °C	
